Our source for the T/C values is PubChem BioAssay AID194 (DTP/NCI, 2004).

Several values for one entry are separate records, joined by “and”; a condition that tells them apart may be missing. Equal entries are not always repeated. Records with an inconclusive call do not appear.

The test system of the assay is BDF1 mice, B16 melanoma s.c., survival/tumor T/C. Put plainly: NCI In Vivo Anticancer Drug Screen. Data for tumor model B16 Melanoma (subcutaneous) in B6D2F1 (BDF1) mice. Here is the method: The antitumor activity of compounds was measured in mice bearing transplantable tumors. Survival or tumor size were measured and the results are expressed as the measurement made in the treated group (T) divided by the measurement made in the vehicle treated control group (C). The tumor model used in this assay is B16 Melanoma (subcutaneous) in B6D2F1 (BDF1) mice

[1] abbreviates: endpoint: median survival time, dose: 1.0 mg/kg/injection, schedule: Q01DX009 (ip), vehicle: saline, higher = longer survival.
Setting [2] is: endpoint: median survival time, dose: 2.0 mg/kg/injection, schedule: Q01DX009 (ip), vehicle: saline, higher = longer survival.
Where [3] appears, read: endpoint: median survival time, dose: 64.0 mg/kg/injection, schedule: Q01DX009 (ip), vehicle: saline, higher = longer survival.
Where [4] appears, read: endpoint: median survival time, dose: 0.5 mg/kg/injection, schedule: Q01DX009 (ip), vehicle: saline with Tween-80, higher = longer survival.
Where [5] appears, read: endpoint: median survival time, dose: 1.0 mg/kg/injection, schedule: Q01DX009 (ip), vehicle: saline with Tween-80, higher = longer survival.

With `O=c1cnn(C2OC(CO)C(O)C2O)c(=O)[nH]1` (stereo not given), the T/C is 117 % of control (endpoint: median survival time, dose: 75.0 mg/kg/injection, schedule: Q01DX009 (ip), vehicle: saline, higher = longer survival); 104 % of control (endpoint: median survival time, dose: 150.0 mg/kg/injection, schedule: Q01DX009 (ip), vehicle: saline, higher = longer survival); 90 % of control (endpoint: median survival time, dose: 300.0 mg/kg/injection, schedule: Q01DX009 (ip), vehicle: saline, higher = longer survival); 101 % of control (endpoint: median survival time, dose: 600.0 mg/kg/injection, schedule: Q01DX009 (ip), vehicle: saline, higher = longer survival).
As for `N[C@H](C(=O)O)[C@@H]1CC(Cl)=NO1`, the T/C was 87 % of control and 114 % of control under setting [1]; 116 % of control (endpoint: median survival time, dose: 1.4 mg/kg/injection, schedule: Q01DX009 (ip), vehicle: saline, higher = longer survival); 95 % of control and 105 % of control under setting [2]; 120 % of control (endpoint: median survival time, dose: 2.1 mg/kg/injection, schedule: Q01DX009 (ip), vehicle: saline, higher = longer survival); 124 % of control (endpoint: median survival time, dose: 3.2 mg/kg/injection, schedule: Q01DX009 (ip), vehicle: saline, higher = longer survival); 90 % of control (endpoint: median survival time, dose: 4.0 mg/kg/injection, schedule: Q01DX009 (ip), vehicle: saline, higher = longer survival). Moreover, the T/C is, setting by setting: (endpoint: median survival time, dose: 8.0 mg/kg/injection, schedule: Q01DX009 (ip), vehicle: saline, higher = longer survival) 108 % of control; (endpoint: median survival time, dose: 16.0 mg/kg/injection, schedule: Q01DX009 (ip), vehicle: saline, higher = longer survival) 101 % of control; (endpoint: median survival time, dose: 27.0 mg/kg/injection, schedule: Q04DX003 (ip), vehicle: saline, higher = longer survival) 120 % of control; (endpoint: median survival time, dose: 40.0 mg/kg/injection, schedule: Q01DX001 (ip), vehicle: saline, higher = longer survival) 103 % of control; (endpoint: median survival time, dose: 40.0 mg/kg/injection, schedule: Q04DX003 (ip), vehicle: saline, higher = longer survival) 119 % of control; (endpoint: median survival time, dose: 60.0 mg/kg/injection, schedule: Q01DX001 (ip), vehicle: saline, higher = longer survival) 113 % of control. The T/C was 124 % of control (endpoint: median survival time, dose: 60.0 mg/kg/injection, schedule: Q04DX003 (ip), vehicle: saline, higher = longer survival) and 112 % of control (endpoint: median survival time, dose: 90.0 mg/kg/injection, schedule: Q01DX001 (ip), vehicle: saline, higher = longer survival).
Regarding `CC[CH2][Sn]([CH2]CC)([CH2]CC)[O][Sn]([CH2]CC)([CH2]CC)[CH2]CC`, the T/C is 123 % of control (endpoint: median survival time, dose: 0.5 mg/kg/injection, schedule: Q01DX009 (ip), vehicle: saline, higher = longer survival); 114 % of control under setting [1]; 100 % of control under setting [2].
Take `CC(=O)Oc1ccccc1C(=O)O`: the T/C by setting is: (endpoint: median survival time, dose: 32.0 mg/kg/injection, schedule: Q01DX009 (ip), vehicle: saline, higher = longer survival) 95 % of control; under setting [3], 88 % of control; (endpoint: median survival time, dose: 256.0 mg/kg/injection, schedule: Q01DX009 (ip), vehicle: saline, higher = longer survival) 116 % of control.
For the compound `C1CN1c1nc(N2CC2)nc(N2CC2)n1`, the T/C is 106 % of control (endpoint: median survival time, dose: 0.12 mg/kg/injection, schedule: Q01DX009 (ip), vehicle: saline, higher = longer survival); 110 % of control under setting [4]; 104 % of control (endpoint: median survival time, dose: 0.5 mg/kg/injection, schedule: Q08DX002 (ip), vehicle: saline with Tween-80, higher = longer survival); 93 % of control under setting [5]; 179 % of control (endpoint: median survival time, dose: 2.0 mg/kg/injection, schedule: Q08DX002 (ip), vehicle: saline with Tween-80, higher = longer survival); 87 % of control (endpoint: median survival time, dose: 4.0 mg/kg/injection, schedule: Q08DX002 (ip), vehicle: saline with Tween-80, higher = longer survival). The T/C runs as follows: (endpoint: median tumor weight (est.), dose: 0.12 mg/kg/injection, schedule: Q01DX009 (ip), vehicle: saline with Tween-80, higher = larger tumour) 154 % of control; (endpoint: median tumor weight (est.), dose: 0.25 mg/kg/injection, schedule: Q01DX009 (ip), vehicle: saline with Tween-80, higher = larger tumour) 95 % of control; (endpoint: median tumor weight (est.), dose: 0.5 mg/kg/injection, schedule: Q01DX009 (ip), vehicle: saline with Tween-80, higher = larger tumour) 83 % of control; (endpoint: median tumor weight (est.), dose: 0.5 mg/kg/injection, schedule: Q08DX002 (ip), vehicle: saline with Tween-80, higher = larger tumour) 268 % of control; (endpoint: median tumor weight (est.), dose: 1.0 mg/kg/injection, schedule: Q01DX009 (ip), vehicle: saline, higher = larger tumour) 34 % of control; (endpoint: median tumor weight (est.), dose: 1.0 mg/kg/injection, schedule: Q08DX002 (ip), vehicle: saline with Tween-80, higher = larger tumour) 104 % of control. For the same compound, the T/C runs as follows: (endpoint: median tumor weight (est.), dose: 2.0 mg/kg/injection, schedule: Q08DX002 (ip), vehicle: saline with Tween-80, higher = larger tumour) 81 % of control; (endpoint: median tumor weight (est.), dose: 4.0 mg/kg/injection, schedule: Q08DX002 (ip), vehicle: saline with Tween-80, higher = larger tumour) 19 % of control; (endpoint: median tumor weight (est.), dose: 4.0 mg/kg/injection, schedule: Q08DX002 (ip), vehicle: saline, higher = larger tumour) 86 % of control.
As for `CCCCC(=O)OCC(=O)[C@]1(O)Cc2c(O)c3c(c(O)c2[C@@H](OC2CC(NC(=O)C(F)(F)F)C(O)C(C)O2)C1)C(=O)c1c(OC)cccc1C3=O` (stereo not given in full), the T/C is 104 % of control (endpoint: median survival time, dose: 9.0 mg/kg/injection, schedule: Q01DX008 (ip), vehicle: distilled water + Tween-80, higher = longer survival); 118 % of control (endpoint: median survival time, dose: 13.0 mg/kg/injection, schedule: Q01DX008 (ip), vehicle: distilled water + Tween-80, higher = longer survival); 110 % of control (endpoint: median survival time, dose: 20.0 mg/kg/injection, schedule: Q01DX008 (ip), vehicle: distilled water + Tween-80, higher = longer survival); 124 % of control (endpoint: median survival time, dose: 30.0 mg/kg/injection, schedule: Q01DX008 (ip), vehicle: distilled water + Tween-80, higher = longer survival).
On to `CCC(c1ccc(OC(=O)Cc2ccc(N(CCCl)CCCl)cc2)cc1)C(CC)c1ccc(OC(=O)Cc2ccc(N(CCCl)CCCl)cc2)cc1` (stereo not given), for which the T/C (endpoint: median survival time, dose: 80.0 mg/kg/injection, schedule: Q01DX009 (ip), vehicle: saline with Tween-80, higher = longer survival) is 102 % of control; the T/C (endpoint: median survival time, dose: 120.0 mg/kg/injection, schedule: Q01DX009 (ip), vehicle: saline with Tween-80, higher = longer survival) was 106 % of control; the T/C (endpoint: median survival time, dose: 180.0 mg/kg/injection, schedule: Q01DX009 (ip), vehicle: saline with Tween-80, higher = longer survival) was 93 % of control; the T/C (endpoint: median survival time, dose: 270.0 mg/kg/injection, schedule: Q01DX009 (ip), vehicle: saline with Tween-80, higher = longer survival) is 102 % of control; the T/C (endpoint: median survival time, dose: 405.0 mg/kg/injection, schedule: Q01DX009 (ip), vehicle: saline with Tween-80, higher = longer survival) is 90 % of control.
`COc1cccc2c1C(=O)c1c(O)c3c(c(O)c1C2=O)C[C@@](O)(C(=O)COC(=O)Cc1ccccc1)C[C@@H]3OC1CC(N)C(O)C(C)O1` (stereo not given in full): the T/C reads like this: under setting [4], 86 % of control; under setting [5], 88 % of control; (endpoint: median survival time, dose: 2.0 mg/kg/injection, schedule: Q01DX009 (ip), vehicle: saline with Tween-80, higher = longer survival) 94 % of control.
Regarding `Nc1nc(=S)c2ncn(C3CC(O)C(CO)O3)c2[nH]1` (stereo not given), the T/C is 109 % of control (endpoint: median survival time, dose: 4.0 mg/kg/injection, schedule: Q01DX009 (ip), vehicle: saline with Tween-80, higher = longer survival); 91 % of control (endpoint: median survival time, dose: 8.0 mg/kg/injection, schedule: Q01DX009 (ip), vehicle: saline with Tween-80, higher = longer survival); 95 % of control (endpoint: median survival time, dose: 16.0 mg/kg/injection, schedule: Q01DX009 (ip), vehicle: saline with Tween-80, higher = longer survival); 91 % of control (endpoint: median survival time, dose: 32.0 mg/kg/injection, schedule: Q01DX009 (ip), vehicle: saline with Tween-80, higher = longer survival); 123 % of control (endpoint: median survival time, dose: 64.0 mg/kg/injection, schedule: Q01DX009 (ip), vehicle: saline with Tween-80, higher = longer survival).
Consider `NNC(=O)c1ccncc1`, for which the T/C under setting [3] was 116 % of control and the T/C (endpoint: median survival time, dose: 128.0 mg/kg/injection, schedule: Q01DX009 (ip), vehicle: saline, higher = longer survival) is 88 % of control.
Turning to `ClC1=NC(Cl)C(Cl)=N/C1=N\c1ncn[nH]1` (stereo not given), the T/C (endpoint: median survival time, dose: 4.0 mg/kg/injection, schedule: Q01DX009 (ip), vehicle: Klucel (hydroxypropylcellulose) (HPC), higher = longer survival) is 106 % of control; the T/C (endpoint: median survival time, dose: 4.0 mg/kg/injection, schedule: Q01DX009 (ip), vehicle: water, higher = longer survival) was 89 % of control; the T/C (endpoint: median survival time, dose: 8.0 mg/kg/injection, schedule: Q01DX009 (ip), vehicle: Klucel (hydroxypropylcellulose) (HPC), higher = longer survival) was 113 % of control; the T/C (endpoint: median survival time, dose: 16.0 mg/kg/injection, schedule: Q01DX009 (ip), vehicle: Klucel (hydroxypropylcellulose) (HPC), higher = longer survival) is 101 % of control; the T/C (endpoint: median survival time, dose: 16.0 mg/kg/injection, schedule: Q01DX009 (ip), vehicle: water, higher = longer survival) was 170 % of control; the T/C (endpoint: median survival time, dose: 32.0 mg/kg/injection, schedule: Q01DX009 (ip), vehicle: water, higher = longer survival) is 121 % of control.
On to `C1CCC2[N-]CC3CCCCC3[N-]CC3CCCCC3[N-]CC3CCCCC3[N-]CC2C1.[Cu]` (stereo not given), for which the T/C is 98 % of control (endpoint: median survival time, dose: 5.12 mg/kg/injection, schedule: Q01DX005 (ip), vehicle: Klucel (hydroxypropylcellulose) (HPC), higher = longer survival); 95 % of control and 96 % of control and 102 % of control (endpoint: median survival time, dose: 6.4 mg/kg/injection, schedule: Q01DX005 (ip), vehicle: Klucel (hydroxypropylcellulose) (HPC), higher = longer survival); 93 % of control and 95 % of control and 106 % of control (endpoint: median survival time, dose: 8.0 mg/kg/injection, schedule: Q01DX001 (ip), vehicle: Klucel (hydroxypropylcellulose) (HPC), higher = longer survival); 96 % of control and 97 % of control and 98 % of control (endpoint: median survival time, dose: 8.0 mg/kg/injection, schedule: Q01DX005 (ip), vehicle: Klucel (hydroxypropylcellulose) (HPC), higher = longer survival); 95 % of control and 107 % of control and 109 % of control (endpoint: median survival time, dose: 10.0 mg/kg/injection, schedule: Q01DX001 (ip), vehicle: Klucel (hydroxypropylcellulose) (HPC), higher = longer survival); 93 % of control and 94 % of control and 119 % of control (endpoint: median survival time, dose: 12.5 mg/kg/injection, schedule: Q01DX001 (ip), vehicle: Klucel (hydroxypropylcellulose) (HPC), higher = longer survival).
